# Data: US20210023024A1, “COMPOSITION FOR TREATMENT OF CHRONIC WOUNDS” (priority 2018, published 2021)
# Tested on: diabetic foot ulcer
# Assay: Clinical use of triclosan cream on diabetic foot ulcers (patients 1 and 2)
# Assay type: in vivo, human
# From the text: A triclosan cream formulation, according to an embodiment of the invention (Example 5), was applied to a number of patients, with differently presented conditions and symptoms. as described below:
# diabetic. Neuro ischaemic. Heart rate: pulse mono and biphasic depending on the weather. Indication of reduced arterial blood flow due to a blockage or low elasticity. Ex-smoker. Stage 3 Non healing dorsal diabetic foot ulcer.
# The patient had 2 ulcers: • 1) one on the dorsal IPJ on the 2nd toe, size of 5 pence, 1 cm sq and • 2) one on apex of 1st toe, size of 5p, 1 cm sq.
# The patient was treated twice a week. The ulcer was filled with the cream to the brim, so the cream was level with skin surface. […] Triclosan cream was applied for 8 weeks. The cream was packed into the wound and a non-adhesive foam dressing was applied. The patient then wore rocker bottom soles to reduce the weight and pressure. Treatment for this toe ulcer started on Mar. 11, 2017 and healed on 20/1/18. No other medication was used.
# The patient had 1 ulcer on sole of foot, approximately the size of 50 pence.
# While the patient was receiving chemotherapy, the triclosan cream was applied for 8 weeks. The triclosan cream was applied every alternate day, with a sharp debridement and cleansed with sterile saline solution prior to application of the cream. In the last two weeks of treatment the cream was applied daily. […]
structure (smiles),measurement,setting,value
Cc1onc(-c2c(F)cccc2Cl)c1C(=O)N[C@@H]1C(=O)N2[C@@H]1SC(C)(C)[C@@H]2C(=O)O [Flucloxacilin],outcome of previous treatment,"Patient 1, before triclosan cream, Flucloxacilin 6 months intermittently, 6 courses",could not clear the infection in the wound
same,outcome of previous treatment,"Patient 2, before triclosan cream",could not clear the infection in the wound
